Assay results from patent US20130287700A1, “COMPOUNDS FOR THE DIAGNOSIS OF NEURODEGENERATIVE DISORDERS ON THE OLFACTORY EPITHELIUM” (KLINIKUM DARMSTADT GMBH, priority 2010, published 2013).
Entries after “also recorded” stand apart in the source; their conditions may differ.

What was measured:
[1] = test system: Aβ plaque; test: Staining of tissue sections with the dyes, fluorescence microscopy: Aβ deposits in brain/hippocampus; assay type: binding, human; conditions: hippocampus, AD+
Experimental: (§1) Tissue samples were fixed in 10% buffered formalin solution and embedded in paraffin. Slices of 4 μm thickness were prepared using a microtome and mounted on a slide in a water bath. Deparaffinization was carried out according to the following steps:
(§2) Xylene 15 min, 100% ethanol 10 min, 96% ethanol 10 min, 70% ethanol 10 min and storage in water until staining.
(§3) Staining with dyes of this invention was subsequently performed according to the following procedure steps:
(§4) Dyes of the present invention were applied in 0.01-1% ethanolic or methanolic solution dropwise onto the tissue section (50-200 μL) and incubated in a moist, EtOH/MeOH saturated and light-protected chamber for 10 min.
(§5) In the case of poorly soluble substances, up to 10% DMSO were added and, if required, filtered through a syringe filter (0.45 μm pore size).
(§6) Samples were stained with dyes of the present invention as described in example 21 and subsequently investigated using a Zeiss Axioskop, ABO 100 Hg fluorescent lamp, camera: Leica DFC300FX. Depending on the respective dye used, either a FITC filter or a DAPI filter was utilized.

[2] = test system: Tau fibril; test: Staining of tissue sections with the dyes, fluorescence microscopy: Tau in hippocampus; assay type: binding, human; conditions: person, AD, DAPI filter
Experimental: as §1, §2, §3, §4, §5, §6

Compound	Structure stained by the dye ([1]; DAPI filter)	Structure stained by the dye [2]	Structure stained by the dye ([1]; FITC filter)
CN(C)c1ccc(/C=C/c2cnc(/C=C/c3ccc(N(C)C)cc3)cn2)cc1 [BSc4352, 4,4′-(1E,1′E)-2,2′-(pyrazine-2,5-diyl)bis(ethene-2,1-diyl)bis(N,N-dimethylaniline)]	Aβ plaque		
CCN(CC)c1ccc2cc(-c3csc(NNC(=O)c4cccnc4)n3)c(=O)oc2c1 [BSc4007, N′-(4-(7-(diethylamino)-2-oxo-2H-chromen-3-yl)thiazol-2-yl)nicotinohydrazide]		Tau fibril	
C(=C\c1cccc2ccccc12)/c1cc(/C=C/c2cccc3ccccc23)ncn1 [BSc4328, 4,6-Bis((E)-2-(naphthalene-1-yl)vinyl)pyrimidine]	Aβ plaque		
CSc1nc(/C=C/c2ccc(N(C)C)cc2)cc(/C=C/c2ccc(N(C)C)cc2)n1 [BSc4097, 4,4′-(1E,1′E)-2,2′-(2-(methylthio)pyrimidine-4,6-diyl)bis(ethene-2,1-diyl)bis(N,N-dimethylaniline)]	Aβ plaque		
Cn1cccc1/C=C/c1cc(/C=C/c2cccn2C)ncn1 [BSc4327, 4,6-Bis((E)-2-(1-methyl-1H-pyrrol-2-yl)vinyl)pyrimidine]			Aβ in angiopathy
Cn1c2ccccc2c2cc(/C=N\Nc3ccc(-c4nc5ccccc5s4)cc3)ccc21 [BSc4342, (Z)-1-(4-(benzo[d]thiazol-2-yl)phenyl)-2-((9-methyl-9H-carbazol-3-yl)methylene)hydrazin]	Aβ plaque		
COc1ccc(/C=C/c2cnc(/C=C/c3ccc(OC)cc3)cn2)cc1 [BSc4354, 2,5-Bis(4-methoxystyryl)pyrazine]			Aβ in angiopathy; also recorded: Aβ plaque
C(=N/Nc1ccc(-c2nc3ccccc3s2)cc1)/c1cccnc1 [BSc4337, (Z)-1-(4-(benzo[d]thiazol-2-yl)phenyl)-2-((pyridine-3-yl)methylene)hydrazine]	Aβ plaque		
CN(C)c1ccc(/C=C/c2cc(/C=C/c3ccc(N(C)C)cc3)ncn2)cc1 [BSc4090, 4-((1E)-2-(6-(4-(dimethylamino)styryl)pyrimidine-4-yl)vinyl)-N,N-dimethylbenzenamine]	Aβ plaque		Aβ plaque
O=C(NCc1cccc(F)c1)Nc1ccc2nonc2c1 [BSc4138, 1-(Benzo[c][1,2,5]oxadiazol-5-yl)-3-(3-fluorobenzyl)urea]	Aβ plaque	Tau fibril	
Cn1cccc1/C=C/c1cnc(/C=C/c2cccn2C)cn1 [BSc4353, 2,5-Bis((E)-2-(1-methyl-1H-pyrrol-2-yl)vinyl)pyrazine]			Aβ in angiopathy; also recorded: Aβ plaque
